HELM strings list units from the 5' end as sugar, base in round brackets, then linkage (d deoxyribose, r ribose, m 2'-O-methyl, p phosphodiester). Strings are as the collection lists them; they lack the last nucleoside at the 3' end of the tested compound. [moe] = 2'-O-(2-methoxyethyl) (MOE); [sp] = phosphorothioate linkage; [m5C] = 5-methylcytosine

The series deals with ATXN2. The series can be described thus: mouse, dose not given. As to conditions: ASO.
“RNA1{[moe](A)[sp].[moe](A)p.[moe](A)p.[moe](G)p.[moe](A)p.d([m5C])[sp].d(T)[sp].d(T)[sp].d(T)[sp].d(G)[sp].d(A)[sp].d(A)[sp].d(A)[sp].d(T)[sp].d([m5C])[sp].[moe](T)p.[moe]([m5C])p.[moe](A)[sp].[moe]([m5C])}$$$$ (last 3' nucleoside missing)” returned a 3 h FOB score of 1 score 0-7. With “RNA1{[moe](A)[sp].[moe](A)p.[moe](G)p.[moe](A)p.[moe](A)p.d(T)[sp].d([m5C])[sp].d([m5C])[sp].d(T)[sp].d(T)[sp].d(A)[sp].d(G)[sp].d([m5C])[sp].d(A)[sp].d([m5C])[sp].[moe](T)p.[moe](T)p.[moe](G)[sp].[moe](G)}$$$$ (last 3' nucleoside missing)” the figure was 6.25 score 0-7. Then “RNA1{[moe](A)[sp].[moe](A)p.[moe](G)p.[moe](A)p.[moe](T)p.d(G)[sp].d(G)[sp].d(G)[sp].d(T)[sp].d(T)[sp].d(T)[sp].d(T)[sp].d(T)[sp].d(T)[sp].d(T)[sp].[moe](G)p.[moe]([m5C])p.[moe](T)[sp].[moe](T)}$$$$ (last 3' nucleoside missing)”, with 4 score 0-7. With “RNA1{[moe](A)[sp].[moe](A)p.[moe](G)p.[moe](A)p.[moe]([m5C])p.d(T)[sp].d(T)[sp].d(T)[sp].d(T)[sp].d(T)[sp].d(A)[sp].d(T)[sp].d(G)[sp].d(T)[sp].d(T)[sp].[moe](G)p.[moe]([m5C])p.[moe](T)[sp].[moe]([m5C])}$$$$ (last 3' nucleoside missing)” the figure was 3.5 score 0-7; with “RNA1{[moe](A)[sp].[moe](A)p.[moe](G)p.[moe](T)p.[moe](A)p.d(G)[sp].d(T)[sp].d(G)[sp].d(T)[sp].d(T)[sp].d(T)[sp].d(G)[sp].d(G)[sp].d(G)[sp].d(A)[sp].[moe](T)p.[moe](G)p.[moe]([m5C])[sp].[moe](T)}$$$$ (last 3' nucleoside missing)”, 6 score 0-7. As to “RNA1{[moe](A)[sp].[moe](A)p.[moe](G)p.[moe](T)p.[moe](T)p.d([m5C])[sp].d([m5C])[sp].d([m5C])[sp].d(A)[sp].d(T)[sp].d(T)[sp].d(G)[sp].d([m5C])[sp].d(A)[sp].d(T)[sp].[moe](T)p.[moe](G)p.[moe](T)[sp].[moe](T)}$$$$ (last 3' nucleoside missing)”, the 3 h FOB score came out at 6 score 0-7. As for “RNA1{[moe](A)[sp].[moe](A)p.[moe](G)p.[moe](T)p.[moe]([m5C])p.d(T)[sp].d(T)[sp].d(G)[sp].d(T)[sp].d(T)[sp].d([m5C])[sp].d(A)[sp].d(G)[sp].d(T)[sp].d(G)[sp].[moe](T)p.[moe]([m5C])p.[moe]([m5C])[sp].[moe](T)}$$$$ (last 3' nucleoside missing)”, the 3 h FOB score is 4.5 score 0-7. Then “RNA1{[moe](A)[sp].[moe](A)p.[moe](G)p.[moe]([m5C])p.[moe](T)p.d(T)[sp].d(A)[sp].d(G)[sp].d(A)[sp].d(G)[sp].d(T)[sp].d(T)[sp].d(T)[sp].d(T)[sp].d(T)[sp].[moe](G)p.[moe]([m5C])p.[moe]([m5C])[sp].[moe](T)}$$$$ (last 3' nucleoside missing)”, with 4 score 0-7. Then “RNA1{[moe](A)[sp].[moe](A)p.[moe](T)p.[moe](A)p.[moe](G)p.d(G)[sp].d(G)[sp].d(T)[sp].d(T)[sp].d(T)[sp].d(T)[sp].d(G)[sp].d(T)[sp].d(T)[sp].d([m5C])[sp].[moe](A)p.[moe](T)p.[moe](G)[sp].[moe]([m5C])}$$$$ (last 3' nucleoside missing)”, with 3.75 score 0-7; and “RNA1{[moe](A)[sp].[moe](A)p.[moe](T)p.[moe](A)p.[moe](T)p.d(T)[sp].d([m5C])[sp].d([m5C])[sp].d(A)[sp].d(T)[sp].d(A)[sp].d([m5C])[sp].d(A)[sp].d(G)[sp].d(A)[sp].[moe](T)p.[moe]([m5C])p.[moe](G)[sp].[moe]([m5C])}$$$$ (last 3' nucleoside missing)”, with 2.5 score 0-7.

Take “RNA1{[moe](A)[sp].[moe](A)p.[moe](T)p.[moe](G)p.[moe]([m5C])p.d([m5C])[sp].d(G)[sp].d(T)[sp].d(T)[sp].d(T)[sp].d(T)[sp].d(T)[sp].d(A)[sp].d([m5C])[sp].d(T)[sp].[moe]([m5C])p.[moe](T)p.[moe]([m5C])[sp].[moe](A)}$$$$ (last 3' nucleoside missing)”: the 3 h FOB score was found to be 0 score 0-7. With “RNA1{[moe](A)[sp].[moe](A)p.[moe]([m5C])p.[moe](A)p.[moe](G)p.d([m5C])[sp].d(T)[sp].d([m5C])[sp].d(T)[sp].d(G)[sp].d(T)[sp].d(T)[sp].d([m5C])[sp].d(G)[sp].d(A)[sp].[moe](T)p.[moe](G)p.[moe]([m5C])[sp].[moe](A)}$$$$ (last 3' nucleoside missing)” the figure was 6 score 0-7; with “RNA1{[moe](A)[sp].[moe](A)p.[moe]([m5C])p.[moe](G)p.[moe](A)p.d(T)[sp].d(G)[sp].d(A)[sp].d(T)[sp].d([m5C])[sp].d(T)[sp].d(G)[sp].d(G)[sp].d(T)[sp].d(A)[sp].[moe](T)p.[moe]([m5C])p.[moe]([m5C])[sp].[moe](T)}$$$$ (last 3' nucleoside missing)”, 7 score 0-7; with “RNA1{[moe](A)[sp].[moe](A)p.[moe]([m5C])p.[moe](G)p.[moe](G)p.d(A)[sp].d(G)[sp].d(T)[sp].d([m5C])[sp].d(A)[sp].d([m5C])[sp].d(T)[sp].d(G)[sp].d(T)[sp].d(T)[sp].[moe](T)p.[moe](T)p.[moe](T)[sp].[moe]([m5C])}$$$$ (last 3' nucleoside missing)”, 5.5 score 0-7. Then “RNA1{[moe](A)[sp].[moe](A)p.[moe]([m5C])p.[moe](T)p.[moe](G)p.d(G)[sp].d(A)[sp].d(T)[sp].d(T)[sp].d([m5C])[sp].d(T)[sp].d(G)[sp].d(T)[sp].d(A)[sp].d([m5C])[sp].[moe](T)p.[moe](T)p.[moe](T)[sp].[moe](T)}$$$$ (last 3' nucleoside missing)”, with 4.75 score 0-7; and “RNA1{[moe](A)[sp].[moe](A)p.[moe]([m5C])p.[moe]([m5C])p.[moe](A)p.d(T)[sp].d(G)[sp].d([m5C])[sp].d([m5C])[sp].d(T)[sp].d([m5C])[sp].d(T)[sp].d(T)[sp].d(T)[sp].d(T)[sp].[moe](T)p.[moe](T)p.[moe]([m5C])[sp].[moe](T)}$$$$ (last 3' nucleoside missing)”, with 0 score 0-7. Then “RNA1{[moe](A)[sp].[moe](A)p.[moe]([m5C])p.[moe]([m5C])p.[moe](A)p.d([m5C])[sp].d(T)[sp].d(G)[sp].d(A)[sp].d(T)[sp].d(T)[sp].d(T)[sp].d(A)[sp].d(T)[sp].d(A)[sp].[moe]([m5C])p.[moe](A)p.[moe]([m5C])[sp].[moe](T)}$$$$ (last 3' nucleoside missing)”, with 2.5 score 0-7; and “RNA1{[moe](A)[sp].[moe](G)p.[moe](A)p.[moe](G)p.[moe](T)p.d(T)[sp].d(T)[sp].d(T)[sp].d(T)[sp].d(G)[sp].d([m5C])[sp].d([m5C])[sp].d(T)[sp].d(T)[sp].d([m5C])[sp].[moe]([m5C])p.[moe](A)p.[moe](T)[sp].[moe](T)}$$$$ (last 3' nucleoside missing)”, with 3 score 0-7. Consider “RNA1{[moe](A)[sp].[moe](G)p.[moe](G)p.[moe](G)p.[moe](T)p.d(T)[sp].d(A)[sp].d(A)[sp].d(T)[sp].d(T)[sp].d(A)[sp].d(G)[sp].d(G)[sp].d(A)[sp].d(T)[sp].[moe]([m5C])p.[moe](T)p.[moe](A)[sp].[moe](T)}$$$$ (last 3' nucleoside missing)”, for which the 3 h FOB score was found to be 6 score 0-7. Then “RNA1{[moe](A)[sp].[moe](G)p.[moe](G)p.[moe](T)p.[moe](G)p.d(A)[sp].d(T)[sp].d(G)[sp].d(T)[sp].d(T)[sp].d(T)[sp].d([m5C])[sp].d(A)[sp].d(T)[sp].d(T)[sp].[moe](G)p.[moe](G)p.[moe](G)[sp].[moe](T)}$$$$ (last 3' nucleoside missing)”, with 4.5 score 0-7; and “RNA1{[moe](A)[sp].[moe](G)p.[moe](G)p.[moe]([m5C])p.[moe](A)p.d(T)[sp].d(A)[sp].d(A)[sp].d(A)[sp].d(T)[sp].d(T)[sp].d(T)[sp].d([m5C])[sp].d(A)[sp].d(T)[sp].[moe]([m5C])p.[moe](T)p.[moe](T)[sp].[moe](A)}$$$$ (last 3' nucleoside missing)”, with 0 score 0-7.

In turn, “RNA1{[moe](A)[sp].[moe](G)p.[moe](T)p.[moe](A)p.[moe](A)p.d(A)[sp].d(A)[sp].d(G)[sp].d(T)[sp].d(T)[sp].d(T)[sp].d(T)[sp].d(T)[sp].d([m5C])[sp].d([m5C])[sp].[moe]([m5C])p.[moe](T)p.[moe](T)[sp].[moe](A)}$$$$ (last 3' nucleoside missing)” had a 3 h FOB score of 3.25 score 0-7. With “RNA1{[moe](A)[sp].[moe](G)p.[moe](T)p.[moe](A)p.[moe](T)p.d([m5C])[sp].d(T)[sp].d([m5C])[sp].d(A)[sp].d(G)[sp].d(T)[sp].d(T)[sp].d(T)[sp].d(T)[sp].d(T)[sp].[moe](T)p.[moe](T)p.[moe](T)[sp].[moe](T)}$$$$ (last 3' nucleoside missing)” the figure was 2 score 0-7; with “RNA1{[moe](A)[sp].[moe](G)p.[moe](T)p.[moe](G)p.[moe](T)p.d(T)[sp].d(T)[sp].d(G)[sp].d(G)[sp].d(G)[sp].d(A)[sp].d(T)[sp].d(G)[sp].d([m5C])[sp].d(T)[sp].[moe](T)p.[moe]([m5C])p.[moe](A)[sp].[moe](G)}$$$$ (last 3' nucleoside missing)”, 6.5 score 0-7; with “RNA1{[moe](A)[sp].[moe](G)p.[moe](T)p.[moe](T)p.[moe]([m5C])p.d(A)[sp].d([m5C])[sp].d([m5C])[sp].d(T)[sp].d(G)[sp].d([m5C])[sp].d(A)[sp].d(T)[sp].d([m5C])[sp].d([m5C])[sp].[moe]([m5C])p.[moe](A)p.[moe](G)[sp].[moe](G)}$$$$ (last 3' nucleoside missing)”, 5.5 score 0-7. Then “RNA1{[moe](A)[sp].[moe](G)p.[moe](T)p.[moe]([m5C])p.[moe](A)p.d(T)[sp].d(G)[sp].d([m5C])[sp].d(T)[sp].d(T)[sp].d(A)[sp].d(T)[sp].d(A)[sp].d(A)[sp].d(A)[sp].[moe](G)p.[moe](T)p.[moe]([m5C])[sp].[moe]([m5C])}$$$$ (last 3' nucleoside missing)”, with 3.5 score 0-7.

Source of the values: the OligoGym collection.
